Results on 27 compounds are retold here after ChEMBL document CHEMBL4842321, “Novel benzenesulfonamides aryl and arylsulfone conjugates adopting tail/dual tail approaches: Synthesis, carbonic anhydrase inhibitory activity and molecular modeling studies” (Eur J Med Chem, 2021).

One experiment addresses Carbonic anhydrase 1 (Homo sapiens, UniProt P00915). In words: Inhibition of recombinant human carbonic anhydrase 1 by stopped-flow CO2 hydration assay.
The target of another experiment is Carbonic anhydrase 2 (Homo sapiens, UniProt P00918). Kind of experiment: Inhibition of recombinant human carbonic anhydrase 2 by stopped-flow CO2 hydration assay.
The target of another experiment is Carbonic anhydrase 4 (Homo sapiens, UniProt P22748). In words: Inhibition of recombinant human carbonic anhydrase 4 by stopped-flow CO2 hydration assay.
Carbonic anhydrase 4, sequence (P22748 whole entry): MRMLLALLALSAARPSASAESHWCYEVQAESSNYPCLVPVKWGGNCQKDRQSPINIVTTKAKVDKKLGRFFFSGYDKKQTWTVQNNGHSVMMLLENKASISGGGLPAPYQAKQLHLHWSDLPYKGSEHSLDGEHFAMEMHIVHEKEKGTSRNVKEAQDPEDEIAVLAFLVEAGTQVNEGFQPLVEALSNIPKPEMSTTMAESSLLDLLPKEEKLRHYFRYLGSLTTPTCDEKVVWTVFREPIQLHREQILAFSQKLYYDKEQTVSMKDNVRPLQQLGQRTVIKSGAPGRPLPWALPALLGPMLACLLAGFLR
The next experiment concerns the target Carbonic anhydrase 9 (Homo sapiens, UniProt Q16790). In words: Inhibition of recombinant human carbonic anhydrase 9 by stopped-flow CO2 hydration assay.
The next experiment relates to MCF7. Kind of experiment: Antiproliferation activity against human MCF7 cells assessed as reduction in cell viability under hypoxic conditions by MTT assay.
The test system of the next experiment is MCF-10A. Kind of experiment: cells. The settings on record: Homo sapiens.

Carbonic anhydrase 1, sequence (P00915 whole entry): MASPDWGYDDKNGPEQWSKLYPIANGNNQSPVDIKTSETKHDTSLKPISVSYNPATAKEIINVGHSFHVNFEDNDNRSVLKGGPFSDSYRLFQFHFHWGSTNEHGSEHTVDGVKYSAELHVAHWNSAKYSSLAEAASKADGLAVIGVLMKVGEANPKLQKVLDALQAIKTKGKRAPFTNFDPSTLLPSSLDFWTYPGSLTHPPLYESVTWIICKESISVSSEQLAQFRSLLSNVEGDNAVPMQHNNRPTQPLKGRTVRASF
Description for MCF-10A: Antiproliferation activity against human MCF-10A cells assessed as reduction in cell viability under hypoxic conditions by MTT assay

For the compound `O=C(O)c1ccc(N/C=C(\C(=O)c2ccccc2)S(=O)(=O)c2ccccc2)cc1`, the Ki at Carbonic anhydrase 1, at Carbonic anhydrase 2, at Carbonic anhydrase 4 and at Carbonic anhydrase 9 was over 100 µM in each case.
For `NS(=O)(=O)c1ccc(N/N=C(\C(=O)c2ccccc2)S(=O)(=O)c2ccccc2)cc1`, at Carbonic anhydrase 9, the Ki is 1.61 µM. The IC50 was found to be 1.74 µM with MCF7 and 14.1 µM in the experiment on MCF-10A.
With `C/C(=N/NC(=O)c1ccc(S(N)(=O)=O)cc1)c1ccc(Cl)cc1`, at Carbonic anhydrase 9, the Ki turned out to be 0.319 µM. The values for the IC50 in the experiment with MCF7 and in the experiment on MCF-10A were 3.75 µM and 62.7 µM, respectively.
Take `NS(=O)(=O)c1ccc(C(=O)N/N=C\c2ccc(Cl)cc2)cc1`: the Ki on Carbonic anhydrase 9 stood at 2.09 µM. In addition, the IC50 in the experiment on MCF7 was 36.7 µM; in the experiment on MCF-10A it was 82 µM.
The corresponding values for `NS(=O)(=O)c1ccc(C(=O)N/N=C\c2ccc(Br)cc2)cc1` are 2.21 µM, 1.37 µM and 27.7 µM.
As for `NS(=O)(=O)c1ccc(C(=O)N/N=C\c2ccccc2)cc1`, on Carbonic anhydrase 9, the Ki came to 0.869 µM. For the same compound, the IC50 was determined as 14.9 µM with MCF7 and 39.4 µM in the experiment with MCF-10A.
The corresponding values for `NS(=O)(=O)c1ccc(C(=O)N/N=C(/CS(=O)(=O)c2ccccc2)c2ccc(Br)cc2)cc1` are 0.289 µM, 19.1 µM and 34.1 µM.
As for `O=C(O)c1ccc(N/C=C(\C(=O)c2ccc(Br)cc2)S(=O)(=O)c2ccccc2)cc1`, the Ki on Carbonic anhydrase 1, at Carbonic anhydrase 4 and on Carbonic anhydrase 9 was over 100 µM each time.
For `C/C(=N/NC(=O)c1ccc(S(N)(=O)=O)cc1)c1ccc(Br)cc1`, the Ki on Carbonic anhydrase 9 came out at 0.962 µM. For the same compound, the figures for the IC50 in the experiment with MCF7 and in the experiment with MCF-10A were 2.29 µM and 37.6 µM, respectively.
Regarding `O=c1[nH]cc(F)c(=O)[nH]1` [FLUOROURACIL], the figures for the IC50 with MCF7 and with MCF-10A were 12.5 µM and 17.2 µM, respectively.
Consider `NS(=O)(=O)c1ccc(N/C=C(\C(=O)c2ccc(Cl)cc2)S(=O)(=O)c2ccccc2)cc1`, for which, on Carbonic anhydrase 9, the Ki was determined as 3.01 µM. The IC50 in the experiment on MCF7 turned out to be 15.1 µM; with MCF-10A, 28 µM.
Taken in the same sequence, the figures for `C/C(=N/NC(=O)c1ccc(S(N)(=O)=O)cc1)c1ccc(F)cc1` were 1.45 µM, 31.9 µM and 22 µM.
As for `NS(=O)(=O)c1ccc(N/C=C(\C(=O)c2ccccc2)S(=O)(=O)c2ccccc2)cc1`, the Ki at Carbonic anhydrase 9 came out at 2.76 µM. The IC50 with MCF7 is 3.44 µM; with MCF-10A it was 17.9 µM.
Consider `O=C(O)c1ccc(N/N=C(/CS(=O)(=O)c2ccccc2)c2ccc(Cl)cc2)cc1`, for which the Ki at Carbonic anhydrase 1 and on Carbonic anhydrase 9 was over 100 µM each time.
In the case of `NS(=O)(=O)c1ccc(N/N=C(/CS(=O)(=O)c2ccccc2)c2ccccc2)cc1`, the Ki at Carbonic anhydrase 9 was found to be 2.49 µM. Further, the figures for the IC50 with MCF7 and in the experiment on MCF-10A were 3.97 µM and 46.1 µM, respectively.
With `NS(=O)(=O)c1ccc(C(=O)N/N=C(/CS(=O)(=O)c2ccccc2)c2ccccc2)cc1`, on Carbonic anhydrase 9, the Ki was 0.769 µM. For the same compound, the IC50 with MCF7 came to 10.7 µM; in the experiment with MCF-10A, 84.8 µM.
Consider `O=C(O)c1ccc(N/C=C(\C(=O)c2ccc(Cl)cc2)S(=O)(=O)c2ccccc2)cc1`, for which the Ki on Carbonic anhydrase 1, on Carbonic anhydrase 2, at Carbonic anhydrase 4 and on Carbonic anhydrase 9 was over 100 µM in each case.
As to `NS(=O)(=O)c1ccc(C(=O)N/N=C(/CS(=O)(=O)c2ccccc2)c2ccc(F)cc2)cc1`, on Carbonic anhydrase 9, the Ki came to 1.12 µM. Also, the IC50 with MCF7 was found to be 0.62 µM; with MCF-10A it was 63.7 µM.
As for `O=C(O)c1ccc(N/N=C(/CS(=O)(=O)c2ccccc2)c2ccc(Br)cc2)cc1`, the Ki on Carbonic anhydrase 1, at Carbonic anhydrase 2, on Carbonic anhydrase 4 and on Carbonic anhydrase 9 was over 100 µM throughout.
Regarding `NS(=O)(=O)c1ccc(C(=O)N/N=C(/CS(=O)(=O)c2ccccc2)c2ccc(Cl)cc2)cc1`, the Ki at Carbonic anhydrase 9 worked out at 0.818 µM. Also, the results for the IC50 in the experiment on MCF7 and in the experiment on MCF-10A were 57 µM and 25.6 µM, respectively.
In the case of `O=C(O)c1ccc(N/N=C(\C(=O)c2ccccc2)S(=O)(=O)c2ccccc2)cc1`, the Ki at Carbonic anhydrase 1, on Carbonic anhydrase 2, at Carbonic anhydrase 4 and on Carbonic anhydrase 9 was over 100 µM throughout.
As to `NS(=O)(=O)c1ccc(N/N=C(/CS(=O)(=O)c2ccccc2)c2ccc(Br)cc2)cc1`, the Ki on Carbonic anhydrase 9 was found to be 0.909 µM. In addition, the IC50 is 17.3 µM in the experiment on MCF7 and 12.9 µM with MCF-10A.
Taken in the same sequence, the figures for `NS(=O)(=O)c1ccc(N/C=C(\C(=O)c2ccc(Br)cc2)S(=O)(=O)c2ccccc2)cc1` were 3.03 µM, 62.7 µM and 20.4 µM.
Taken in the same sequence, the figures for `C/C(=N/NC(=O)c1ccc(S(N)(=O)=O)cc1)c1ccccc1` were 0.322 µM, 20.1 µM and 31.1 µM.
Regarding `NS(=O)(=O)c1ccc(C(=O)N/N=C\c2ccc(F)cc2)cc1`, at Carbonic anhydrase 9, the Ki worked out at 2.37 µM. For the same compound, the IC50 was 9.17 µM in the experiment with MCF7 and 35.9 µM with MCF-10A.
The corresponding values for `NS(=O)(=O)c1ccc(N/N=C(/CS(=O)(=O)c2ccccc2)c2ccc(Cl)cc2)cc1` are 2.91 µM, 8.01 µM and 28.6 µM.
For `O=C(O)c1ccc(N/N=C(/CS(=O)(=O)c2ccccc2)c2ccccc2)cc1`, the Ki on Carbonic anhydrase 4 and at Carbonic anhydrase 9 was over 100 µM each time.

What is called Ki is the equilibrium dissociation constant of an inhibitor or competing ligand from its target. In general, IC50 refers to the concentration at which inhibition is half-maximal.
